Reference: patent publication US9289400B2, “D3 dopamine receptor agonists to treat dyskinesia in parkinson's disease” (priority 2010, dated 2016)
Entries after “also recorded” stand apart in the source; their conditions may differ. Like-named read-outs stand apart in the source and are kept apart here. Marks after values point to notes of the source that are not given here.

Key:
[1] = target: D4.2 dopamine receptor (Homo sapiens (Human), UniProt P21917, DEL265-296); type: cell-based
Procedure: The EC50 values for each receptor subtype is determined by fitting the data points using the Hill equation.
AtT-20 mouse pituitary cells were grown in Ham's F10 medium with 5% FBS, 10% heat-inactivated horse serum, 2 mM glutamine and 50 μg/ml gentamicin (Invitrogen, Carlsbad, Calif.). AtT-20 cells stabling expressing the human D2S, D2L, D3, and D4.2 and receptor were maintained in the above F10 culture media supplemented with 500 μg/ml G418 (Invitrogen). For electrophysiological characterization, cells were plated onto glass coverslips coated with 40 μg/ml poly L-lysine (Sigma-Aldrich). […] Physiol. […] Neurosci. […] Biophys. […] Neurosci.
Drug solutions were delivered to cells via a multi-barreled micropipette array. The current responses were normalized to the cell capacitance, to account for variation in cell size.
To compare the functional effects of the new class of D3 receptor agonists, PBZI (Table 2) and ES609 (Table 3) were tested on AtT-20 cells stably expressing human D3, D2S, D2L or D4.2.

[2] = tested on: parental AtT-20 cells; assay: GIRK response in parental (non-transfected) AtT-20 cells; type: cell-based, mouse; conditions: 300 nM, no exogenous D3 receptor expression
Procedure: To determine whether a compound is an agonist of the D3 dopamine receptor the AtT-20 neuroendocrine cell line that stably expresses the human D3 receptors is used. In the initial screen, the ability of 300 nM lead compound to activate G-protein coupled inward rectifier potassium (GIRK) channels (FIG. 1) is measured using whole cell voltage clamp recording. The protocol has been previously used for performing whole cell voltage clamp and measuring agonist-induced GIRK response. The acute ligand-induced GIRK currents are compared to that elicited by equivalent concentration of native agonist dopamine or full agonist quinpirole. The specificity of the response is determined by measuring GIRK response elicited by the lead compound in non-transfected AtT-20 cells and also in the presence of D2-like dopamine receptor antagonist eticlopride and D3 receptor selective antagonist GR218231 ((+)-(2R)-1,2,3,4-tetrahydro-6-[[(4-methoxyphenyl)sulfonyl]methyl]-N,N-dipropyl-2-naphthalenamine). To be considered for further development, the lead compound should generate a GIRK response that is equal to or greater than that elicited by equivalent concentration (300 nM) of dopamine or quinpirole.
AtT-20 mouse pituitary cells were grown in Ham's F10 medium with 5% FBS, 10% heat-inactivated horse serum, 2 mM glutamine and 50 μg/ml gentamicin (Invitrogen, Carlsbad, Calif.). AtT-20 cells stabling expressing the human D2S, D2L, D3, and D4.2 and receptor were maintained in the above F10 culture media supplemented with 500 μg/ml G418 (Invitrogen). […]
Agonist-activated currents were measured by the whole-cell patch clamp technique in voltage clamp and current clamp mode as described previously (Kuzhikandathil & Oxford, 2000, J. Gen. Physiol. 115:697-706; Kuzhikandathil et al., 1998, Mol. Cell. Neurosci. 12:390-402; Kuzhikandathil & Bartoszyk, 2006, Neuropharm. 51:873-884; Westrich & Kuzhikandathil, 2007, Biochim. Biophys. Acta-MCR 1773:1747-1758; Kuzhikandathil et al., 2004, Mol. Cell. Neurosci. 26:144-155; Westrich et al., 2010, Biochem. Pharmacol. 79:897-907). […]

[3] = target: D2L dopamine receptor (Homo sapiens (Human), UniProt P14416); assay: GIRK channel activation, whole cell voltage clamp, AtT-20 cells stably expressing D2L; type: cell-based; conditions: for GIRK channel activation: agonist type: versus full agonist quinpirole
Chain of D2L dopamine receptor (P14416 whole entry): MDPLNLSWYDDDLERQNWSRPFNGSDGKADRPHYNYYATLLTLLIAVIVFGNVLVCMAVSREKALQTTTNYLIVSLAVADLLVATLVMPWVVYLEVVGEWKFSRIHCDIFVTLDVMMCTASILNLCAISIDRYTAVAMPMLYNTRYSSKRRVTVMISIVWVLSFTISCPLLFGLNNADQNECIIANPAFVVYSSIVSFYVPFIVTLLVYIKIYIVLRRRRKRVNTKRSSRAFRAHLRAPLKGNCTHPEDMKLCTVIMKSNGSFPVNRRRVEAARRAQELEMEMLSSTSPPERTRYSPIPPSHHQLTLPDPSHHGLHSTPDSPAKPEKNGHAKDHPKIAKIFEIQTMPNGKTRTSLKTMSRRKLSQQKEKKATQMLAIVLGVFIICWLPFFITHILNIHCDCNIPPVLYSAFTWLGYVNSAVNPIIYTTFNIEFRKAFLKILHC
Procedure: The activation of the GIRK channels was measured electrophysiologically using whole cell voltage clamp recording (Kuzhikandathil et al., 2004, Mol. Cell. Neurosci. 26:144-155). The GIRK channel responses elicited with new ligands were compared to quinpirole, a classical full agonist of D2, D3 and D4 dopamine receptors. The adenylyl cyclase inhibition was determined using a commercially available ELISA assay (Westrich & Kuzhikandathil, 2007, Biochim. Biophys. Acta-Mol. Cell. Res. 1773:1747-1758).
In the first assay, whole cell voltage clamp recording is used to measure GIRK response to increasing concentrations of the lead compound (0.01 nM to 3,000 nM dose range). The EC50 values for each receptor subtype is determined by fitting the data points using the Hill equation.
(§1) AtT-20 mouse pituitary cells were grown in Ham's F10 medium with 5% FBS, 10% heat-inactivated horse serum, 2 mM glutamine and 50 μg/ml gentamicin (Invitrogen, Carlsbad, Calif.). AtT-20 cells stabling expressing the human D2S, D2L, D3, and D4.2 and receptor were maintained in the above F10 culture media supplemented with 500 μg/ml G418 (Invitrogen). For electrophysiological characterization, cells were plated onto glass coverslips coated with 40 μg/ml poly L-lysine (Sigma-Aldrich). The generation and characterization of the AtT-20 cells stably expressing various human dopamine receptors have been previously reported (Kuzhikandathil & Oxford, 2000, J. Gen. Physiol. 115:697-706; Kuzhikandathil et al., 1998, Mol. Cell. Neurosci. 12:390-402; Kuzhikandathil & Bartoszyk, 2006, Neuropharm. 51:873-884; Westrich & Kuzhikandathil, 2007, Biochim. Biophys. Acta-MCR 1773:1747-1758; Kuzhikandathil et al., 2004, Mol. Cell. Neurosci. 26:144-155; Westrich et al., 2010, Biochem. Pharmacol. 79:897-907).
Agonist-activated currents were measured by the whole-cell patch clamp technique in voltage clamp and current clamp mode as described previously (Kuzhikandathil & Oxford, 2000, J. Gen. Physiol. 115:697-706; Kuzhikandathil et al., 1998, Mol. Cell. Neurosci. 12:390-402; Kuzhikandathil & Bartoszyk, 2006, Neuropharm. 51:873-884; Westrich & Kuzhikandathil, 2007, Biochim. Biophys. Acta-MCR 1773:1747-1758; Kuzhikandathil et al., 2004, Mol. Cell. Neurosci. 26:144-155; Westrich et al., 2010, Biochem. Pharmacol. 79:897-907). Drug solutions were delivered to cells via a multi-barreled micropipette array. The current responses were normalized to the cell capacitance, to account for variation in cell size.
(§2) To compare the functional effects of the new class of D3 receptor agonists, PBZI (Table 2) and ES609 (Table 3) were tested on AtT-20 cells stably expressing human D3, D2S, D2L or D4.2. Functional efficacy was determined by assessing the ability of PBZI and ES609 to inhibit adenylyl cyclase or activate GIRK channels coupled to these “D2-like” dopamine receptors. The EC50 values of PBZI and ES609 for inhibiting adenylyl cyclase and activating GIRK channels were in the range of 0.2 nM to 30 nM for D3 receptors.

[4] = target: T1, D3 dopamine receptor (Homo sapiens (Human), UniProt P35462); assay: Adenylyl cyclase inhibition (forskolin-induced cAMP) in AtT-20 cells stably expressing D3; type: cell-based; conditions: for Adenylyl cyclase inhibition: agonist type: versus full agonist quinpirole
T1 sequence (P35462 other isoform, or with tags, fused parts or gaps): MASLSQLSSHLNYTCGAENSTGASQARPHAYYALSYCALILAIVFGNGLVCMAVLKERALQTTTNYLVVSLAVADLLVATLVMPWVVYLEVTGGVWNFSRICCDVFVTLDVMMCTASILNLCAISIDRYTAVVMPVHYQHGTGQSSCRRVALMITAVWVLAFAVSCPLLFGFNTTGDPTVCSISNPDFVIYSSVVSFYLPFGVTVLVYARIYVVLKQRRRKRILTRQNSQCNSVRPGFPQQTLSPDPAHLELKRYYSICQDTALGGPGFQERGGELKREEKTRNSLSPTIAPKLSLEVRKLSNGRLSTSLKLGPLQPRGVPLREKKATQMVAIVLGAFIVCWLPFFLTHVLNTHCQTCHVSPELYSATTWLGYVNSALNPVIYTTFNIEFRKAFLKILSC
Procedure: In the second functional assay, the ability of D2-like dopamine receptors to inhibit adenylyl cyclase activity is assessed. The ability of the lead compound to dose-dependently decrease forskolin-induced cAMP levels is measured. The IC50 values for each receptor subtype is determined by fitting the data points using the Hill equation. Previously, the EC50 and IC50 values for dopamine and quinpirole has been determined in these cell lines in both functional assays.
as §1
Cyclic AMP (cAMP) levels were assessed using the cAMP Biotrak Enzymeimmunoassay (EIA) kit (GE Healthcare, Piscataway, N.J., USA) as described previously (Kuzhikandathil & Bartoszyk, 2006, Neuropharm. 51:873-884). The cAMP levels in each treated sample were assayed in triplicate and the entire experiment repeated three independent times.
as §2

[5] = Water solubility; type: physicochemical
[6] = target: T1, D3 dopamine receptor; assay: Current clamp recording of spontaneous action potentials in AtT-20 cells expressing D3; type: cell-based; conditions: 100 nM dopamine or 300 nM PBZI
[7] = AtT-20 cells, D3, read-out: Adenylyl cyclase inhibition EC50
[8] = D3 receptors, range over both compounds and both assays, read-out: EC50 for inhibiting adenylyl cyclase and activating GIRK channels

Chain of D4.2 dopamine receptor (P21917 other isoform, or with tags, fused parts or gaps del 265-296): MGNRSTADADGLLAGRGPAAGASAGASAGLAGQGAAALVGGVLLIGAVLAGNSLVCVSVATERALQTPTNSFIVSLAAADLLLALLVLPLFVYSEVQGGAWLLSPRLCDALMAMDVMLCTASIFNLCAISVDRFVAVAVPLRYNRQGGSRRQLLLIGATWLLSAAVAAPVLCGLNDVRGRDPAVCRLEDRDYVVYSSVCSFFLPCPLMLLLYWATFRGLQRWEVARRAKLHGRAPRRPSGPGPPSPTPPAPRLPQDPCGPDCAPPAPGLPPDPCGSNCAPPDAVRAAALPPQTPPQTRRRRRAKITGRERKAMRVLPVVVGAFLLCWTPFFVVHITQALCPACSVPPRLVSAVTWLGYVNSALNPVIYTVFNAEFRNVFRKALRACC

| Structure (SMILES) | GIRK channel activation: agonist type [1] | GIRK channel activation EC50 ([1]; AtT-20 cells, D4.2) | GIRK channel activation Ratio of ES609 to quinpirole response (at 300 nM) ([1]; D4.2, 300 nM) | GIRK response at 300 nM ([1]; D4.2, 300 nM) | GIRK channel activation: agonist type ([1]; listed as ES0609) | GIRK currents in parental AtT-20 cells [2] | GIRK currents in parental AtT-20 cells ([2]; listed as ES 609) | GIRK channel activation Ratio of ES609 to quinpirole response (at 300 nM) ([3]; 300 nM) | GIRK channel activation: agonist type [3] | GIRK channel activation: agonist type ([3]; listed as ES0609) | EC50 [4, 7] | Adenylyl cyclase inhibition Ratio of ES609 to quinpirole response (at 300 nM) ([4]; D3, 300 nM) | Adenylyl cyclase inhibition: agonist type ([4]; D3) | Adenylyl cyclase inhibition: agonist type ([4]; D3, listed as ES0609) | EC50 [4, 8] | GIRK channel activation Ratio of PBZI to quinpirole response (at 300 nM) ([1]; D4.2, 300 nM) | water solubility [5] | GIRK channel activation Ratio of PBZI to quinpirole response (at 300 nM) ([3]; 300 nM) | Adenylyl cyclase inhibition Ratio of PBZI to quinpirole response (at 300 nM) ([4]; D3, 300 nM) | inhibition of spontaneous action potentials on repeated application [6] |
| --- | --- | --- | --- | --- | --- | --- | --- | --- | --- | --- | --- | --- | --- | --- | --- | --- | --- | --- | --- | --- |
| CC(N)CCc1ccccc1Cl (centres unmarked) [ES609] | elicited no response | No response | 0^†† | ^††300 nM ES609 elicits no GIRK response; but, 300 nM quinpirole elicits a full GIRK response. | no response | neither 300 nM PBZI (hatched bar) nor 300 nM ES609 (cross hatched bar) induced GIRK currents | did not elicit GIRK currents | 0.32* | partial agonist | Partial | 0.15 nM | 0.71 | full agonists | Full | 0.2 to 30 nM |  |  |  |  |  |
| CCCN1CC[C@@H]2c3cc(O)ccc3CC[C@@H]21 [PBZI, (3aS,9bR)-3-propyl-1,2,3a,4,5,9b-hexahydrobenzo[e]indol-8-ol] | partial agonist |  |  |  |  | neither 300 nM PBZI (hatched bar) nor 300 nM ES609 (cross hatched bar) induced GIRK currents |  |  | full agonist |  | 35 nM |  | full agonists and full |  | 0.2 to 30 nM | 0.35* | water soluble | 0.75 | 0.97 | inhibited spontaneous action potentials during the first application and subsequent applications; also recorded: inhibited the spontaneous action potentials during the first and second treatment |
